One assay has as its system Myzus persicae. In words: Insecticidal activity against Myzus persicae (green peach aphid) reared on compound pre-treated […] plants assessed as insect mortality rate at 0.8 ppm measured 7 days post compound treatment. It counts as functional.
As a reminder, the mortality is the percentage killed. Regarding `C/N=C(\NCc1ccc(Cl)nc1)N[N+](=O)[O-]`, the mortality at 0.8 ppm came out at 100%.

On to `O=[N+]([O-])/N=C1\NCCCN1Cc1ccc(Cl)nc1`, for which the mortality at 0.8 ppm turned out to be 100%.

With `COC1(OC)CN/C(=C\[N+](=O)[O-])N(Cc2ccc(Cl)nc2)C1`, the mortality at 0.8 ppm amounted to 0%.

On to `COC1(OC)CN/C(=N\C#N)N(Cc2ccc(Cl)nc2)C1`, for which the mortality at 0.8 ppm amounted to 60%.

On to `COC1(OC)CN(C)/C(=N\[N+](=O)[O-])N(Cc2cnc(Cl)s2)C1`, for which the mortality at 0.8 ppm is 60%.

As to `COC1(OC)CN(C)/C(=N\[N+](=O)[O-])N(Cc2ccc(Cl)nc2)C1`, the mortality at 0.8 ppm was 60%.

For `COC1(OC)CN/C(=N\[N+](=O)[O-])N(Cc2cnc(Cl)s2)C1`, the mortality at 0.8 ppm was found to be 60%.

`COC1(OC)CN/C(=N\[N+](=O)[O-])N(Cc2ccc(Cl)nc2)C1`: the mortality at 0.8 ppm was 90%.

A further assay has as its system Myzus persicae. In words: Insecticidal activity against Myzus persicae (green peach aphid) reared on compound pre-treated […] plants assessed as insect mortality rate at 100 ppm measured 7 days post compound treatment. The class given is functional.
Consider `N/C(=N\[N+](=O)[O-])NCc1ccc(Cl)nc1`, for which the mortality at 100 ppm was determined as 60%.

The next assay concerns Myzus persicae. In words: Insecticidal activity against Myzus persicae (green peach aphid) reared on compound pre-treated […] plants assessed as insect mortality rate at 20 ppm measured 7 days post compound treatment. The class given is functional.
On to `C/N=C(\NCc1ccc(Cl)nc1)N[N+](=O)[O-]`, for which the mortality at 20 ppm was 100%.

`O=[N+]([O-])/N=C1\NCCCN1Cc1ccc(Cl)nc1`: the mortality at 20 ppm amounted to 100%.

In the case of `COC1CN/C(=N\[N+](=O)[O-])N(Cc2ccc(Cl)nc2)C1` (stereo not drawn), the mortality at 20 ppm came to 40%.

In the case of `CC1(C)CN/C(=N\[N+](=O)[O-])N(Cc2ccc(Cl)nc2)C1`, the mortality at 20 ppm stood at 60%.

For `COC1(OC)CN/C(=C\[N+](=O)[O-])N(CC2CCOC2)C1` (stereo not drawn), the mortality at 20 ppm came out at 60%.

`COC1(OC)CN/C(=C\[N+](=O)[O-])N(Cc2ccc(Cl)nc2)C1`: the mortality at 20 ppm came out at 90%.

For `COC1(OC)CN/C(=N\C#N)N(Cc2ccc(Cl)nc2)C1`, the mortality at 20 ppm amounted to 100%.

Turning to `COC1(OC)CN(C)/C(=N\[N+](=O)[O-])N(Cc2cnc(Cl)s2)C1`, the mortality at 20 ppm came to 100%.

As to `COC1(OC)CN(C)/C(=N\[N+](=O)[O-])N(Cc2ccc(Cl)nc2)C1`, the mortality at 20 ppm was determined as 90%.

For the compound `COC1(OC)CN/C(=N\[N+](=O)[O-])N(Cc2cnc(Cl)s2)C1`, the mortality at 20 ppm was 100%.

`COC1(OC)CN/C(=N\[N+](=O)[O-])N(Cc2ccc(Cl)nc2)C1`: the mortality at 20 ppm is 100%.

A further assay has as its system Periplaneta americana. In words: Insecticidal activity against Periplaneta americana (American cockroach) administered through injection into abdomen co-injceted with 50 ug piperonyl butoxide and 50 ug NIA 16388 measured 24 hr post compound injection. It counts as functional.
In the case of `C/N=C(\NCc1ccc(Cl)nc1)N[N+](=O)[O-]`, the MLD is 0.0051 µmol.

Compound `O=[N+]([O-])/N=C1\NCCCN1Cc1ccc(Cl)nc1` showed an MLD of 0.015 µmol.

Compound `N/C(=N\[N+](=O)[O-])NCc1ccc(Cl)nc1` displayed an MLD of more than 0.4 µmol.

In turn, `COC1(OC)CN/C(=C\[N+](=O)[O-])N(CC2CCOC2)C1` (stereo not drawn) had an MLD of more than 0.36 µmol.

`COC1(OC)CN/C(=C\[N+](=O)[O-])N(Cc2ccc(Cl)nc2)C1` registered an MLD of more than 0.44 µmol.

In the case of `COC1(OC)CN/C(=N\C#N)N(Cc2ccc(Cl)nc2)C1`, the MLD was more than 0.4 µmol.

With `COC1(OC)CN(C)/C(=N\[N+](=O)[O-])N(Cc2cnc(Cl)s2)C1`, the MLD was more than 0.36 µmol.

For the compound `COC1(OC)CN(C)/C(=N\[N+](=O)[O-])N(Cc2ccc(Cl)nc2)C1`, the MLD is more than 0.36 µmol.

The compound `COC1(OC)CN/C(=N\[N+](=O)[O-])N(Cc2cnc(Cl)s2)C1` returned an MLD of more than 0.34 µmol.

The compound `COC1(OC)CN/C(=N\[N+](=O)[O-])N(Cc2ccc(Cl)nc2)C1` yielded an MLD of more than 0.38 µmol.

The test system of the next assay is Myzus persicae. In words: Insecticidal activity against Myzus persicae (green peach aphid) reared on compound pre-treated […] plants assessed as insect mortality rate at 4 ppm measured 7 days post compound treatment. It counts as functional.
Take `C/N=C(\NCc1ccc(Cl)nc1)N[N+](=O)[O-]`: the mortality at 4 ppm is 100%.

As for `O=[N+]([O-])/N=C1\NCCCN1Cc1ccc(Cl)nc1`, the mortality at 4 ppm amounted to 100%.

Take `COC1CN/C(=N\[N+](=O)[O-])N(Cc2ccc(Cl)nc2)C1` (stereo not drawn): the mortality at 4 ppm worked out at 0%.

`CC1(C)CN/C(=N\[N+](=O)[O-])N(Cc2ccc(Cl)nc2)C1`: the mortality at 4 ppm was 0%.

With `COC1(OC)CN/C(=C\[N+](=O)[O-])N(CC2CCOC2)C1` (stereo not drawn), the mortality at 4 ppm was 0%.

For the compound `COC1(OC)CN/C(=C\[N+](=O)[O-])N(Cc2ccc(Cl)nc2)C1`, the mortality at 4 ppm came to 60%.

Turning to `COC1(OC)CN/C(=N\C#N)N(Cc2ccc(Cl)nc2)C1`, the mortality at 4 ppm came out at 60%.

As for `COC1(OC)CN(C)/C(=N\[N+](=O)[O-])N(Cc2cnc(Cl)s2)C1`, the mortality at 4 ppm was determined as 100%.

Consider `COC1(OC)CN(C)/C(=N\[N+](=O)[O-])N(Cc2ccc(Cl)nc2)C1`, for which the mortality at 4 ppm stood at 90%.

For the compound `COC1(OC)CN/C(=N\[N+](=O)[O-])N(Cc2cnc(Cl)s2)C1`, the mortality at 4 ppm was 100%.

In the case of `COC1(OC)CN/C(=N\[N+](=O)[O-])N(Cc2ccc(Cl)nc2)C1`, the mortality at 4 ppm was 100%.

Another assay relates to Myzus persicae. In words: Insecticidal activity against Myzus persicae (green peach aphid) reared on compound pre-treated […] plants assessed as insect mortality rate at 0.16 ppm measured 7 days post compound treatment. It counts as functional.
As to `C/N=C(\NCc1ccc(Cl)nc1)N[N+](=O)[O-]`, the mortality at 0.16 ppm was found to be 100%.

As for `O=[N+]([O-])/N=C1\NCCCN1Cc1ccc(Cl)nc1`, the mortality at 0.16 ppm came to 90%.

Consider `COC1(OC)CN/C(=N\C#N)N(Cc2ccc(Cl)nc2)C1`, for which the mortality at 0.16 ppm came out at 20%.

Regarding `COC1(OC)CN(C)/C(=N\[N+](=O)[O-])N(Cc2cnc(Cl)s2)C1`, the mortality at 0.16 ppm came to 40%.

For `COC1(OC)CN(C)/C(=N\[N+](=O)[O-])N(Cc2ccc(Cl)nc2)C1`, the mortality at 0.16 ppm was determined as 30%.

Take `COC1(OC)CN/C(=N\[N+](=O)[O-])N(Cc2cnc(Cl)s2)C1`: the mortality at 0.16 ppm is 50%.

In the case of `COC1(OC)CN/C(=N\[N+](=O)[O-])N(Cc2ccc(Cl)nc2)C1`, the mortality at 0.16 ppm was determined as 60%.

The test system of the next assay is Periplaneta americana. In words: Insecticidal activity against Periplaneta americana (American cockroach) administered through injection into abdomen measured 24 hr post compound injection. The class given is functional.
`C/N=C(\NCc1ccc(Cl)nc1)N[N+](=O)[O-]` registered an MLD of 0.0051 µmol.

As to `O=[N+]([O-])/N=C1\NCCCN1Cc1ccc(Cl)nc1`, the MLD came out at 9.6e-05 µmol.

`N/C(=N\[N+](=O)[O-])NCc1ccc(Cl)nc1` displayed an MLD of more than 0.4 µmol.

The compound `COC1(OC)CN/C(=C\[N+](=O)[O-])N(CC2CCOC2)C1` (stereo not drawn) yielded an MLD of more than 0.36 µmol.

Compound `COC1(OC)CN/C(=C\[N+](=O)[O-])N(Cc2ccc(Cl)nc2)C1` registered an MLD of 0.35 µmol.

Compound `COC1(OC)CN/C(=N\C#N)N(Cc2ccc(Cl)nc2)C1` registered an MLD of more than 0.4 µmol.

As to `COC1(OC)CN(C)/C(=N\[N+](=O)[O-])N(Cc2cnc(Cl)s2)C1`, the MLD was 0.36 µmol.

For `COC1(OC)CN(C)/C(=N\[N+](=O)[O-])N(Cc2ccc(Cl)nc2)C1`, the MLD worked out at 0.36 µmol.

`COC1(OC)CN/C(=N\[N+](=O)[O-])N(Cc2cnc(Cl)s2)C1`: the MLD came out at 0.24 µmol.

Compound `COC1(OC)CN/C(=N\[N+](=O)[O-])N(Cc2ccc(Cl)nc2)C1` had an MLD of 0.19 µmol.

Another assay relates to Periplaneta americana. In words: Neuroblocking potency in Periplaneta americana (American cockroach) abdominal fifth and sixth ganglia assessed as neuroblocking concentration. The class given is functional.
On to `C/N=C(\NCc1ccc(Cl)nc1)N[N+](=O)[O-]`, for which the Activity came to 0.0085 mM.

For `O=[N+]([O-])/N=C1\NCCCN1Cc1ccc(Cl)nc1`, the Activity is reported as 0.0045 mM.

Take `N/C(=N\[N+](=O)[O-])NCc1ccc(Cl)nc1`: the Activity is more than 0.65 mM.

In the case of `COC1(OC)CN/C(=C\[N+](=O)[O-])N(CC2CCOC2)C1` (stereo not drawn), the Activity was more than 0.54 mM.

`COC1(OC)CN/C(=C\[N+](=O)[O-])N(Cc2ccc(Cl)nc2)C1`: the Activity was 1 mM.

Regarding `COC1(OC)CN/C(=N\C#N)N(Cc2ccc(Cl)nc2)C1`, the Activity was 0.62 mM.

Consider `COC1(OC)CN(C)/C(=N\[N+](=O)[O-])N(Cc2cnc(Cl)s2)C1`, for which the Activity is more than 0.54 mM.

Take `COC1(OC)CN(C)/C(=N\[N+](=O)[O-])N(Cc2ccc(Cl)nc2)C1`: the Activity is more than 0.56 mM.

Consider `COC1(OC)CN/C(=N\[N+](=O)[O-])N(Cc2cnc(Cl)s2)C1`, for which the Activity was more than 0.56 mM.

Take `COC1(OC)CN/C(=N\[N+](=O)[O-])N(Cc2ccc(Cl)nc2)C1`: the Activity is recorded as 0.56 mM.
